From US20240165259A1, “BIOORTHOGONAL REACTION SUITABLE FOR CLICK/UNCLICK APPLICATIONS” (DANA-FARBER CANCER INSTITUTE, INC., priority 2021, published 2024)

Key:
[1] = molecular target: T1, lysozyme-COT 15 in HEK293T cell lysate (Gallus gallus, UniProt P00698); assay: Protein labeling in the presence of HEK293T cell lysate; format: biochemical; conditions: 13 and lysozyme-COT 15, HEK293T cell lysate, PBS, 2 hours
T1 construct: purchased
Protocol: There appeared to be no cross-reactivity between dialkylhydroxylamine and other proteins under these conditions.
(§1) Cell Culture: HEK-293T cells were cultured in Dulbecco's Modified Eagle Media (DMEM, Corning®) containing 10% fetal bovine serum (FBS, Sigma), 100 units/mL penicillin, and 0.1 mg/mL streptomycin (Sigma) in a humidified chamber at 37° C. with 5% CO2. Cells were passaged and dissociated with 0.25% trypsin, 0.1% ethylenediaminetetraacetic acid (EDTA) in Hanks' balanced salt solution (HBSS) (Corning®). Cells tested negative for […] by the MycoAlert™ PLUS Mycoplasma Detection Kit (Lonza) following the manufacturer's protocol.
Cell Lysate: Cell culture media was aspirated prior to lysis. Cells (10 cm dish, ˜80% confluency) was lysed by adding lysis buffer (1.0 mL, 4° C.; 150 mM NaCl, 50 mM Tris (pH 8.0), 1% triton X-100). After centrifugation (13,000×g) at 4° C., the supernatant was transferred to a clean tube, and the protein concentration was determined by BCA (bicinchoninic acid) protein assay (Pierce™ BCA Protein Assay Kit). […]
Protein Labeling Experiments: Lysozyme-COT 15 (0.75 μg, 5.0 μL, 0.15 mg/mL in deionized water) was aliquoted to form 4 samples. […] In-gel fluorescence was imaged with a Typhoon™ FLA 9500 (GE) at 532 nm with a photomultiplier tube (PMT) setting of 500 V. The experiment was carried out in triplicate.

[2] = tested on: cell surface HaloTag-GFP expressed on HEK293T cells; assay: Live cell labeling experiment (confocal microscopy); format: cell-based; conditions: 10 μM 21′, then 10 μM 22′ for 1 hour, fixed
Protocol: Live cell labeling by hydroamination was explored. HEK293T cells were transiently transfected with a cell surface HaloTag-GFP construct, treated with 10 μM HaloTag linker-conjugated difluoropropargyl ether 21′, washed, and incubated with 10 μM TAMRA-conjugated hydroxylamine 22′ for 1 hour. The cells were then fixed and visualized by confocal microscopy.
as §1, with “Medium” for “Media”, “EDTA” for “ethylenediaminetetraacetic acid (EDTA)”, “HBSS” for “Hanks' balanced salt solution (HBSS)”, “MycoAlert” for “MycoAlert™”
Preparation for 12-Well Plate: Coverslips (15 mm circle, thickness 0.13-0.17 mm) were acid-washed according to the Cold Spring Harbor protocol (Fischer et al., Cold Spring Harb. Protoc. 2008:pdb.prot4988 (2008)). A coverslip was added to each well in a 12-well plate followed by an aqueous solution of poly-D-lysine (0.1 mg/mL, 30-70 kDa, 800 μL). The plate was gently shaken to distribute the solution evenly, incubated at room temperature for 1 hour, washed using 1 mL of autoclaved deionized water for each well, and dried overnight. […]

T1 sequence (P00698 19-147): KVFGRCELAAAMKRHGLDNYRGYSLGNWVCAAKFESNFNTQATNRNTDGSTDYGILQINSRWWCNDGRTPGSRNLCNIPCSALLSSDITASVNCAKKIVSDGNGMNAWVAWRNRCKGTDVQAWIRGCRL

How did the “labeling specificity in the presence of cell lysate” value [1] turn out when `CN(O)CCOCCNC(=O)c1ccc2c(c1)C1(OC2=O)c2ccc(N(C)C)cc2Oc2cc(N(C)C)ccc21` [compound 13, 3′,6′-bis(dimethylamino)-N-(2-(2-(hydroxy(methyl)amino)ethoxy)ethyl)-3-oxo-3H-spiro[isobenzofuran-1,9′-xanthene]-6-carboxamide] was run?
Its value is “lysozyme was labeled exclusively”.

And the “live cell labeling (TAMRA signal)” value [2]?
The value was “localized at the cell surface and co-localized with the GFP signal of transfected cells”.
